Like-named read-outs stand apart in the source and are kept apart here.
Assays:
SYK kinase = target: T1, SYK kinase (Homo sapiens, UniProt P43405); test: In vitro test of the inhibition effect on SYK kinase (HTRF); type: biochemical; conditions: tyrosine kinase 0.0156 ng/μL, substrate 0.2 uM, ATP 2 uM, 23° C. 1 hour, read-out: Inhibit SYK kinase IC50
T1 construct: purchased Invitrogen PV3857
Protocol: Experimental Example 1: In Vitro Test of the Inhibition Effect of the Example Compounds on SYK Kinase
Adenosine triphosphate concentration was controlled at 2 uM. • 4) Loaded with a Multidrop automatic dispenser, and a mixture of tyrosinase solution and tyrosine kinase-substrate-biotin/adenosine triphosphate was added in an amount of 5 ul per well, and incubated at 23° C. for 1 hour. • c) Detection phase: • 1) Added 13.33 mL of ethylenediaminetetraacetic acid solution to the Detection Buffer in the kit, added the specified amount of […] (Eu)-labeled antibody and streptavidin XL-665, and prepared the detection solution. • 2) Loaded with a Multidrop automatic dispenser, and 10 uL of the detection solution per well, incubated at 23° C. for 1 hour. It terminated the reaction of the enzyme and substrate mixture. • 3) Reading after centrifugation on a multi-function microplate reader, • d) Data Analysis: Analyzed the data with XL-Fit, and calculated the IC50 value of the compound.

AKT phosphorylation = test: In vitro test of the inhibition effect on AKT phosphorylation (ELISA, Ramos cells); type: cell-based
Protocol: Experimental Example 2: In Vitro Test of the Inhibition Effect of the Example Compounds on AKT Phosphorylation
• 2.1 Experimental Purpose: Intracellular protein kinase AKT phosphorylation detected by experiment was measured by enzyme-linked immunosorbent assay (ELISA), and the inhibition of the compound on protein kinase AKT phosphorylation was evaluated by an index of the half-cell inhibition concentration (IC50) value of the compound. • 2.2 Experimental Materials: • Cell line: Ramos cell line • Cell culture medium (RPMI1640, Invitrogen #22400-105; 10% serum Gibco #10099-141; L-glutamine 1×, Gibco #25030-081) • Experimental medium (without serum, RPM11640, Invitrogen #22400-105; L-glutamine 1×, Gibco #25030) • Lysis buffer (trishydroxymethylaminomethane hydrochloride, Invitrogen15567-1000 ml; sodium chloride, domestic; sodium deoxycholate, Sigma30970-25 G; polyethylene glycol octylphenyl ether, SigmaT9284-100 ml; dodecane sodium sulfonate, SigmaL3771; ethylenediaminetetraacetic acid, Invitrogen15575-038-100 ml; ultrapure water, MilliQ) • Protease inhibitor (Roche, 4693159001-30/BOX) • Phosphatase inhibitor mixture 2 (Sigma, P5726-5 ML) • Phosphatase inhibitor mixture 3 (Sigma, P0044-5 ML) • Goat Anti-Human immunoglobulin M (F(ab′)2 Goat Anti-Human IgM) (Jackson Immuno Research-109-006-129) • Phosphorylated AKT assay kit (Phospho-AKT 1/2/3 (ser473)) (TGR Bioscience, EKT002) • 10× Hank's balanced salt solution (Gibco #14065-056) • 96-well cell plate (Greiner #655090) • Compound V-well dilution plate (Axygen #WITP02280) • CO2 incubator (Thermo #371) • Centrifuge (Eppendorf #581 OR) • Vi-cell cell counter (Beckman Coulter) • Pipette (Eppendorf) • Pipette (Greiner) • Pipetting gun (Eppendorf) • Multi-purpose microplate reader (Envision Reader) • 2.3 Experimental procedures and methods: • a) Cell Seeding (Ramos Cells) • 1) The medium was preheated in a 37° C. water bath. Suspended cells and their culture solution were aspirated, centrifuged at 1000 rpm for 5 minutes. • 2) Aspirated the cell culture medium, added 10 mL of pre-warmed medium to the centrifuge tube, blew off the resuspended cells, pipette 1 mL of the cell suspension, and counted with Vi-cell; • 3) The Ramos cells were diluted with a medium to a density of 5×10^6/mL, and the diluted cells were added to a 96-well cell culture plate (100 μL/well) using a lance. Placed the cell plates in a 37° C., 5% CO2 incubator for overnight. • b) Cell starvation: • 1) After cultured the inoculation cells for overnight, centrifuged at 1000 rpm for 5 minutes on the next day, aspirated the original medium by a lance, added serum-free experimental medium, placed the cell plates in a 37° C., 5% CO2 incubator, and starved for overnight. • c) Compound preparation and dosing: • 1) The compound was diluted with dimethyl sulfoxide to give an initial concentration of 5 mM. A triple gradient dilution was done with compound V dilution plate to make 10 concentration points. • 2) Took another new compound V-well dilution plate, added 198 ul of serum-free experimental medium to each well, and then added 2 ul of the diluted compound above to each well, and mixed with a lance. […]

[1] = Homo sapiens, Ramos, Ramos cell line, compound 1 hour, goat anti-human IgM 10 ug/ml for 10 minutes, Phospho-AKT 1/2/3 (ser473) ELISA, read-out: Inhibit AKT phosphorylation IC50
[2] = Ramos cell line, compound 1 hour, goat anti-human IgM 10 ug/ml for 10 minutes, Phospho-AKT 1/2/3 (ser473) ELISA, read-out: Inhibit AKT phosphorylation IC50
[3] = Homo sapiens, Ramos, read-out: Inhibit AKT phosphorylation IC50 (nM)

Row | Compound | IC50 (SYK kinase) [nM] | IC50 (AKT phosphorylation; [1]) [nM] | IC50 (AKT phosphorylation; [2]) [nM] | IC50 (AKT phosphorylation; [3]) [nM]
1 | Cn1c(=O)c(Nc2ccc(C(C)(O)C(F)(F)F)cn2)cc2c(F)c(-c3cc[nH]n3)ccc21 (single isomer, unassigned) [Example 24, 5-Fluoro-1-methyl-6-(1H-pyrazol-3-yl)-3-((5-(1,1,1-trifluoro-2-hydroxypropan-2-yl)pyridine-2-yl)amino)quinoline-2(1H)-one] | 12.3 | 175 | – | –
2 | Cn1c(=O)c(Nc2ccc(C(C)(O)C(F)(F)F)cn2)cc2c(F)c(-c3cc[nH]n3)ccc21 (single isomer, unassigned) [Example 25, 5-Fluoro-1-methyl-6-(1H-pyrazol-3-yl)-3-((5-(1,1,1-trifluoro-2-hydroxypropan-2-yl)pyridine-2-yl)amino)quinoline-2(1H)-one] | 8.9 | – | 121 | –
3 | Cn1c(=O)c(Nc2ccc(N3CCOCC3)cc2)cc2cc(-c3cc[nH]n3)ccc21 [Example 1, 1-Methyl-3-((4-morpholinephenyl)amino)-6-(1H-pyrazol-3-yl) quinoline-2(1H)-one] | 33.8 | – | 248 | –
4 | Cn1c(=O)c(Nc2ccc(N3CCOCC3)cn2)cc2cc(-c3cc[nH]n3)ccc21 [Example 2, 1-Methyl-3-((5-morpholinepyridin-2-yl)amino)-6-(1H-pyrazol-3-yl)quinoline-2(1H)-one] | 204 | – | 750 | –
5 | Cn1c(=O)c(Nc2ccc(C3CCOCC3)cn2)cc2cc(-c3cc[nH]n3)ccc21 [Example 3] | 40.7 | 323 | – | –
6 | Cn1c(=O)c(Nc2ccc(N3CCN(C4COC4)CC3)cn2)cc2cc(-c3cc[nH]n3)ccc21 [Example 4, 1-Methyl-3-[[5-(4-(oxetan-3-yl)piperazin-1-yl]pyridin-2-yl]amino]-6-(1H-pyrazol-3-yl)quinoline-2(1H)-one] | 34.3 | 585 | – | –
7 | Cn1c(=O)c(Nc2ccc(N3CCOCC3)cn2)cc2cc(-c3cc[nH]n3)c(F)cc21 [Example 6, 7-Fluoro-1-methyl-3-((5-morpholinepyridin-2-yl)amino)-6-(1H-pyrazol-3-yl)quinoline-2(1H)-one] | 21.1 | – | – | 446
8 | Cn1c(=O)c(Nc2ccc(N3CCOCC3)cn2)cc2c(Cl)c(-c3cc[nH]n3)ccc21 [Example 7, 5-Chloro-1-methyl-3-((5-morpholinepyridin-2-yl)amino)-6-(1H-pyrazol-3-yl)quinoline-2(1H)-one] | 10.3 | 211 | – | –
9 | Cn1c(=O)c(Nc2ccc(N3CCOCC3)cn2)cc2c(F)c(-c3cc[nH]n3)c(F)cc21 [Example 8, 5,7-Difluoro-1-methyl-3-((5-morpholinopyridin-2-yl)amino)-6-(1H-pyrazol-3-yl)quinoline-2(1H)-one] | 54.6 | 188 | – | –
10 | Cn1c(=O)c(Nc2ccc(N3CCN(C4COC4)CC3)cn2)cc2c(F)c(-c3cc[nH]n3)ccc21 [Example 9, 5-Fluoro-1-methyl-3-((5-(4-(oxetan-3-yl)piperazin-1-yl)pyridin-2-yl)amino)-6-(1H-pyrazol-3-yl)quinoline-2(1H)-one] | 12 | 170 | – | –
11 | Cn1c(=O)c(Nc2ccc(N3CCC(O)(C(F)(F)F)CC3)cn2)cc2c(F)c(-c3cc[nH]n3)ccc21 [Example 10, 5-Fluoro-3-[[5-[4-hydroxy-4-(trifluoromethyl)piperidin-1-yl]pyridin-2-yl]amino]-1-methyl-6-(1H-pyrazol-3-yl)quinoline-2(1H)-one] | 30 | 343 | – | –
12 | Cn1c(=O)c(Nc2ccc(N3CCOCC3)cn2)cc2c(F)c(-c3cc[nH]n3)ccc21 [Example 11, 5-Fluoro-1-methyl-3-((5-morpholinopyridin-2-yl)amino)-6-(1H-pyrazol-3-yl)quinoline-2(1H)-one] | 15 | 230 | – | –
13 | Cn1c(=O)c(Nc2ccc(N3CCC4(CC3)COC4)cn2)cc2c(F)c(-c3cc[nH]n3)ccc21 [Example 12, 5-Fluoro-1-methyl-3-[[5-(2-oxazole-7-azaspiro[3.5]nonane-7-yl)pyridin-2-yl]amino]-6-(1H-pyrazol-3)quinoline-2(1H)-one] | 114 | 750 | – | –
14 | Cn1c(=O)c(Nc2ccccn2)cc2c(F)c(-c3cc[nH]n3)ccc21 [Example 15, 5-Fluoro-1-methyl-6-(1H-pyrazol-3-yl)-3-(pyridin-2-amine)-quinoline-2(1H)-one] | 101 | 425 | – | –
15 | Cn1c(=O)c(Nc2ccc(N)cn2)cc2c(F)c(-c3cc[nH]n3)ccc21 [Example 16, 3-((5-Aminopyridin-2-yl)amino)-5-fluoro-1-methyl-6-(1H-pyrazol-3-yl)quinoline-2(1H)-one] | 47.9 | 197 | – | –
16 | Cn1c(=O)c(Nc2ccc(N3CCCC(C)(C(=O)O)C3)cn2)cc2c(F)c(-c3cc[nH]n3)ccc21 (stereo not shown) [Example 17, 1-(6-((5-Fluoro-1-methyl-2-oxo-6-(1H-pyrazol-3-yl)-1,2-dihydroquinolin-3-yl)amine)pyridine-3-yl)-3-pipecoline-3-carboxylic acid] | 24.9 | 255 | – | –
17 | Cn1c(=O)c(Nc2ccc(N3CCC[C@@H](C(=O)O)C3)cn2)cc2c(F)c(-c3cc[nH]n3)ccc21 [Example 18, (3R)-1-[6-[[5-fluoro-1-methyl-2-oxa-6-(1H-pyrazol-3-yl)-1,2-dihydroquinolin-3-yl)amino]pyridin-3-yl]piperidine-3-carboxylic acid] | 26 | 844 | – | –
18 | Cn1c(=O)c(Nc2ccc(N3CCC[C@H](C(=O)O)C3)cn2)cc2c(F)c(-c3cc[nH]n3)ccc21 [Example 19, (3S)-1-[6-[[5-fluoro-1-methyl-2-oxa-6-(1H-pyrazol-3-yl)-1,2-dihydroquinolin-3-yl)amine]pyridin-3-yl]piperidine-3-carboxylic acid] | 14.3 | 388 | – | –
19 | Cn1c(=O)c(Nc2ccc(C(C)(C)O)cn2)cc2c(F)c(-c3cc[nH]n3)ccc21 [Example 20] | 12.7 | 63 | – | –
20 | Cn1c(=O)c(Nc2ccc(C3(O)CCC3)cn2)cc2c(F)c(-c3cc[nH]n3)ccc21 [Example 21] | 22 | – | – | 200
21 | Cn1c(=O)c(Nc2ccc(C3(F)COC3)cn2)cc2c(F)c(-c3cc[nH]n3)ccc21 [Example 23, 5-Fluoro-3-[[5-(3-fluorooxetan-3-yl)pyridin-2-yl]amino]-1-methyl-6-(1H-pyrazol-3-yl)quinoline-2(1H)-one] | 26.9 | 169 | – | –
22 | Cn1c(=O)c(Nc2ccc(N3CCOCC3)cc2)nc2ccc(-c3cn[nH]c3)cc21 [Example 26, 1-Methyl-3-((4-morpholinephenyl)amino)-7-(1H-pyrazol-4-yl)quinoxaline-2(1H)-one] | 4.2 | 50 | – | –
23 | Cc1[nH]ncc1-c1ccc2nc(Nc3ccc(N4CCOCC4)cc3)c(=O)n(C)c2c1 [Example 29, 1-Methyl-7-(5-methyl-1H-pyrazol-4-yl)-3-((4-morpholinephenyl)amino)quinoxaline-2(1H)-one] | 61 | 233 | – | –

Reference: patent US11091460B2, “Syk inhibitor and use method therefor” (CHIA TAI TIANQING PHARMACEUTICAL GROUP CO., LTD., priority 2017, dated 2021)
